The source of these data is paper PMC11661381, “Covalent-fragment screening identifies selective inhibitors of multiple Staphylococcus aureus serine hydrolases important for growth and biofilm formation” (Research Square, 2024).

Series [1] deals with T1, recombinant FphB (rFphB) (Staphylococcus aureus, UniProt A0A0H2XJG5).
T1 construct: made in house
In kind it is biochemical. The following applies: enzyme inhibition assay. How it is done: (§1) Fluorogenic substrate assays were performed as previously described[9],[11],[12]. […] Turnover rates in the linear phase of the reaction (10–20 min) were calculated using GraphPad prism 10.0 software as RFU/min. Rates were normalized by subtracting background hydrolysis rates measured for each substrate in reaction buffer in the absence of protein.
(§2) For the screening, 8 μL of enzyme solution was pipetted into the assay plates containing 50 nL compound and allowed to incubate for one hour at room temperature. […] For four-point dose response plates, 2.5, 10, 25, 50 nL droplets were transferred to get […], 10, 25, 50 μM compound concentrations in the 384 well plates again using an Echo acoustic liquid handler as above. […] Calculations were done with GraphPad Prism 10.0 software. […] IC50 values were derived from the fitted curve.

Series [2] concerns the target T2, rFphE (Staphylococcus aureus, UniProt Q2FDS6).
T2 construct: otherwise full-length FphE (Uniprot ID Q2FDS6) and FphH (A0A0H2XJL0) proteins; His6 (3C-cleavable, pETNKI-his-3C-LIC vector) (N); made in house; E. coli is inferred from the pET28a-type vector, IPTG induction and LB/kanamycin
T2 sequence (Q2FDS6 1-276): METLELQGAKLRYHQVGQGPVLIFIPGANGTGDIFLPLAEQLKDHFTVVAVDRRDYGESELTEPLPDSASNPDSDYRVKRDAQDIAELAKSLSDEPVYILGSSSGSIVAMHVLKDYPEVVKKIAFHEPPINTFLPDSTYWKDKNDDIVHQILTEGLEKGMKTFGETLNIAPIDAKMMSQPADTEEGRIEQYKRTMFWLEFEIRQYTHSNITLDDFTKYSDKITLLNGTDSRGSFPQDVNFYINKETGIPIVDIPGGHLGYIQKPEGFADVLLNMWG
The series can be described thus: Mass spectrometry of rFphE labeling. It is filed as binding.

Series [3] deals with T3, recombinant FphH (rFphH) (Staphylococcus aureus, UniProt A0A0H2XJL0).
T3 sequence (A0A0H2XJL0 1-246): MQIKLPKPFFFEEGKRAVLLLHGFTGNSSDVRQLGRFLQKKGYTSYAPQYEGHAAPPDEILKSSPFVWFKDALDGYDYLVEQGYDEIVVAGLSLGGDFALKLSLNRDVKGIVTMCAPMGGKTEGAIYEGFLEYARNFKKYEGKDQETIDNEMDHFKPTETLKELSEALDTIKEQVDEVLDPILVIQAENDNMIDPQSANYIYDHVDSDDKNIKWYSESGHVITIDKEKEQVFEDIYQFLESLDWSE
Nature of the series: biochemical. The conditions noted are these: for selectivity in the dose-dependent response assay (in words): three Fphs tested. How it is done: as §1, §2

Series [4] has as its system Fph enzymes in S. aureus USA300 WT lysates. The series can be described thus: Competition of FP labeling in S. aureus lysates. In kind it is binding, Staphylococcus aureus. The conditions noted are these: 120 min preincubation. How it is done:
Figure 3 Biochemical characterization of fluorosulfate-based fragments. […] (d) LC/MS profiles for X13d and X13e in LC/MS buffer or aqueous buffer. (e) Proposed reaction mechanism of X13d or X13e binding to rFphH, Fluorescence SDS-PAGE image of rFphH for direct visualization of labelling by clickable probes X13d and X13e with Cy5-azide. (f) Native mass spectrometry (MS) characterization of 1μM rFphH alone or after 1hr incubation with 10 μM X13d or X13e. […] (h) Competition of FP-Cy5 labeling of S. aureus lysates. […] The indicated Fph transposon mutants (::Tn) lysates are included to highlight the location of the three enzymes in the gel. All data shown are representative of three independent experiments.
Cells were then lysed and click labeled with sulfo-Cy5 azide and analyzed by SDS-PAGE. […] We hypothesized this lack of competition may have been due to the inability to permeate the cell membranes. For bacteria, the permeability is influenced by the polarity of the compound, measured by clogP. Drugs targeting Gram-negative bacteria show higher polarities (clogP = − 0.1) compared to those targeting Gram-positive bacteria (clogP = 2.1)[32],[33]. […] Overall, this electrophile has a unique mechanism of binding with the active site serine of FphH and may be a valuable new electrophile class to target other serine hydrolases.

For series [5], the target named is T4, rFphH (Staphylococcus aureus, UniProt A0A0H2XJL0).
T4 construct: otherwise full-length FphE (Uniprot ID Q2FDS6) and FphH (A0A0H2XJL0) proteins; His6 (3C-cleavable, pETNKI-his-3C-LIC vector) (N); made in house; E. coli is inferred from the pET28a-type vector, IPTG induction and LB/kanamycin
T4 sequence (A0A0H2XJL0 1-246): T3 sequence (A0A0H2XJL0 1-246)
Nature of the series: FP-Cy5 active site labeling of recombinant protein, rFphH. In kind it is binding. The following applies: 500 nM rFphH. How it is done: For activity-based protein labeling experiments, 500 nM of rFphB, rFphE and rFphH in 1X PBS and 0.1% Triton–X were preincubated with different concentrations of inhibitors or DMSO for 2hr at room temperature, followed by adding 300 nM of fluorophosphonate (FP) alkyne and incubated for 30 min at room temperature. Next, 20 μL of the reaction volume were mixed with 2.16 μL of freshly prepared click mix (0.5 μL of 50 mM CuSO4 in H2O, 1.16 μL of 100 mM BTTAA in DMSO, and 0.5 μL of N3-Cy5 in DMSO) and 1.16 μL of 300 mM sodium ascorbate solution in H2O. Samples were incubated at 37°C for 30 min, boiled in SDS loading buffer and analyzed by SDS–PAGE. Cy5 fluorescence was imaged using the Cy5 channel on a Typhoon 9410 Imager (Amersham Biosciences).

The test system of series [6] is Fph enzymes in live S. aureus cells (USA300). Nature of the series: Competition of FP-alkyne labeling in live S. aureus cells. It is filed as cell-based, Staphylococcus aureus. The conditions noted are these: 100 μM compound, live S. aureus cells. How it is done:
One colony of each of S. aureus wild-type and transposon mutants fphB::Tn, fphE::Tn and fphH::Tn picked from growth on a Tryptic soya agar plate were inoculated in 5 mL of Tryptic soya broth (TSB). The overnight bacterial cultures were spun down at 5,000 g for 10 min and pellet was collected. The pellets were washed twice in 1X PBS buffer and resuspended in the same buffer. Cells were first preincubated with the indicated concentrations of inhibitors for 2hr at 37°C. The cells were washed twice with 1X PBS buffer. The resuspended pellets were incubated with Fluorophosphonate-alkyne (FP-alkyne) for 30 min at 37°C. Cells were washed again twice with 1X PBS buffer and resuspended in with 1X PBS and 0.1% Triton–X and lysed by beat beating at 4°C. Next, lysed cells (20 μL) were mixed with 2.16 μL of freshly prepared click mix (0.5 μL of 50 mM CuSO4 in H2O, 1.16 μL of 100 mM BTTAA in DMSO, and 0.5 μL of N3-Cy5 in DMSO) and 1.16 μL of 300 mM sodium ascorbate solution in H2O and incubated at 37 °C for 30 min. Next step, 20 μL of 4X SDS loading buffer was added in each sample and boiled at 100 °C for 10 min. The processed samples were allowed to cool and analyzed by SDS-PAGE (12%) running at 120 V in an electrophoresis chamber. Cy5 fluorescence was imaged using the Cy5 channel on a Typhoon 9410 Imager (Amersham Biosciences).

A short description of series [7]: Stability in aqueous assay buffer by LC/MS. In kind it is physicochemical. The text has this:
This shift was not observed in the acidic mass spectrometry buffer (0.1% formic acid (FA) in H2O as buffer A, and 0.1% FA in acetonitrile (ACN) as buffer B; SI details). We therefore reasoned that the molecule likely reacts to release the fluoride under neutral pH conditions (Fig. 3c). Given the presence of the amide nitrogen in close proximity to the sulfur (VI) atom we reasoned that it likely produces a saccharine-like structure by a cyclization to release the fluorine atom[31]. This would create a molecule that could then be ring-opened by attack by the active site serine on the sulfur center, resulting in irreversible protein modification. […] We were able to purify the non-cyclized OSF-fragment, X13d under acidic conditions, as well as the cyclized OSF-fragment, X13e. We observed a clear mass difference of 20 Da between the two purified species by LC/MS analysis.

The target of series [8] is T4, rFphH. Nature of the series: Intact protein LC-MS of rFphH with inhibitors. In kind it is binding. The following applies: 1 μM rFphH, 10 μM probe, 1hr. How it is done:
Next, 10 μL of the labeled sample was injected and analyzed by LC-MS. […] Protein labeling efficiency was quantified by UV. The acquired mass of protein was deconvoluted using the deconvolution software in Agilent Bioanalysis Software package.

Series [9] addresses T5, recombinant FphE (rFphE) (Staphylococcus aureus, UniProt Q2FDS6).
T5 construct: otherwise full-length FphE (Uniprot ID Q2FDS6) and FphH (A0A0H2XJL0) proteins; His6 (3C-cleavable, pETNKI-his-3C-LIC vector) (N); made in house; E. coli is inferred from the pET28a-type vector, IPTG induction and LB/kanamycin
T5 sequence (Q2FDS6 1-276): T2 sequence (Q2FDS6 1-276)
The series can be described thus: biochemical. The following applies: from dose response IC50 values. How it is done:
as §1, §2

Series [10] deals with the molecule itself. Nature of the series: crystal structure.

T1 sequence (A0A0H2XJG5 entry or part of it): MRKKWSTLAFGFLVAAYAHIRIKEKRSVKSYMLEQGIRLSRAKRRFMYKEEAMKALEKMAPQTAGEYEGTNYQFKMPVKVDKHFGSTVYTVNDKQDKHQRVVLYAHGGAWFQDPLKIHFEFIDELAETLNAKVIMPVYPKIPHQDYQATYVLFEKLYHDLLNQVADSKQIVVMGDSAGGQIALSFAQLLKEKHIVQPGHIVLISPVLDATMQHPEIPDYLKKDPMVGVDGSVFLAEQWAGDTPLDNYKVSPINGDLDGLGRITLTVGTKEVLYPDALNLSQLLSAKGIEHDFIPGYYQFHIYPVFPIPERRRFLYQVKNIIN

On to `Cc1ccc(OS(=O)(=O)F)c(C(=O)Nc2ccncc2)c1` [X13], for which the “inhibition of rFphB (in words)” value in [1] is listed as “no activity against rFphB”. Moreover, in series [2], the “labeling of rFphE by mass-spectrometry (in words)” value was “No labeling”. Moreover, the “selectivity (higher potency) for rFphH over rFphE” value in series [3] (from dose response IC50 values) is about 100 fold. Further, in series [4], the “competition of FP labeling in lysates (in words)” value was “dose-dependently competed with FP labeling of rFphH as well as rFphE at higher concentrations”. In addition, in series [5], the “competition of FP-Cy5 labeling of rFphH (in words)” value is given as “dose-dependent competition of protein labeling”. Moreover, the “competition of FP labeling in live cells (in words)” value in series [6] was “Neither of the compounds competed with FP labeling in intact cells”. In [7] (1X Phosphate buffer saline pH 7.5, 60 min, absence of protein), the “mass shift upon incubation in aqueous buffer” value amounted to 20 Da.

As to `C#Cc1cnccc1NC(=O)c1ccccc1OS(=O)(=O)F` [X13d], the “mass shift of rFphH (in words)” value in series [8] is reported as “produced the expected mass shift”. In addition, in series [7] (pH 7.5 buffer), the “conversion in pH 7.5 buffer (in words)” value was “rapidly converted to the cyclic version”.

With `COc1cc(OC)cc(B(O)O)c1` [W41], the “selectivity for rFphE over rFphH” value in series [9] is listed as about 100 fold. In [6], the “competition of FP labeling in live cells (in words)” value is “unable to block FP labeling of any of the Fph enzymes”.

For the molecule `O=C(Nc1ccncc1)c1ccccc1OS(=O)(=O)F` [X13a], the “competition of FP labeling in lysates (in words)” value in [4] is given as “dose-dependently competed with FP labeling of rFphH as well as rFphE at higher concentrations”. The “competition of FP-Cy5 labeling of rFphH (in words)” value in series [5] is on record as “dose-dependent competition of protein labeling”. The “competition of FP labeling in live cells (in words)” value in series [6] is on record as “Neither of the compounds competed with FP labeling in intact cells”.

Regarding `Cc1cc(B2OC(C)(C)C(C)(C)O2)ccc1S(N)(=O)=O` [Q41], in series [3], the “selectivity in the dose-dependent response assay (in words)” value is recorded as “quite selective for rFphH”.

As a reminder, the IC50 is the point on the concentration scale where inhibition reaches its midpoint. On to `CN1CCCN(C(=O)c2ccc(S(=O)(=O)F)cc2)c2ccccc21` [L17], for which, in series [3] (IC50 (μM) FphH, 5 nM rFphH, 1 hr preincubation, 0.01–50 μM, N.D. = IC50 could not be determined due to incomplete inhibition at the highest concentration tested), the IC50 turned out to be 3 µM.

For `C#Cc1cnccc1N1C(=O)c2ccccc2OS1(=O)=O` [X13e], the “mass shift of rFphH (in words)” value in series [8] was “produced the expected mass shift”.

`CC1(C)OB(c2cnc3c(c2)CC(=O)N3)OC1(C)C` [AF22]: the “selectivity in the dose-dependent response assay (in words)” value in [3] was “quite selective for rFphH”.

B1: FphE (fluorophosphonate-binding hydrolase E), S. aureus USA300, crystallography construct (enzyme)
chain: GPGMETLELQGAKLRYHQVGQGPVLIFIPGANGTGDIFLPLAEQLKDHFTVVAVDRRDYGESELTEPLPDSASNPDSDYRVKRDAQDIAELAKSLSDEPVYILGSSSGSIVAMHVLKDYPEVVKKIAFHEPPINTFLPDSTYWKDKNDDIVHQILTEGLEKGMKTFGETLNIAPIDAKMMSQPADTEEGRIEQYKRTMFWLEFEIRQYTHSNITLDDFTKYSDKITLLNGTDSRGSFPQDVNFYINKETGIPIVDIPGGHLGYIQKPEGFADVLLNMWG
notes: also called rFphE; source: E. coli expression from pet28a-(pETNKI-his-3C-LIC-kan), purified (Ni-NTA, size exclusion); tag cleaved with 3C protease
Turning to B1, in series [10], the binding result is given as “binds”.
